In ChEMBL document CHEMBL3399993, “Design and synthesis of novel quinoline-aminopiperidine hybrid analogues as Mycobacterium tuberculosis DNA gyraseB inhibitors” (Bioorg Med Chem, 2015):
Values after ≈ are worked out from the molar mass of the structure shown.

Tested on: Mycobacterium tuberculosis
Experiment: Antimycobacterial activity against extensively drug resistant Mycobacterium tuberculosis
Type: functional

## COc1ccc2nc(C)cc(N3CCC(NC(=S)Nc4ccccc4)CC3)c2c1
  MIC: 7.62 µM (≈ 3.1 µg/mL)

## COc1ccc2nc(C)cc(N3CCC(NC(=S)Nc4ccc([N+](=O)[O-])cc4)CC3)c2c1
  MIC: 1.72 µM (≈ 0.777 µg/mL)

## COc1ccc2nc(C)cc(N3CCC(NC(=S)Nc4ccc(Cl)cc4)CC3)c2c1
  MIC: 6.94 µM (≈ 3.06 µg/mL)

## Cc1cc(N2CCC(NC(=O)Nc3ccc(F)cc3)CC2)c2cc(F)ccc2n1
  MIC: 3.82 µM (≈ 1.51 µg/mL)
